Values quoted from earlier work in patent US20050096371A1, “Topical pharmaceutical compositions” (priority 2003, published 2005).

Legend:
human subjects = conditions: repeated insult patch test, 50 human subjects, total of 15 applications; manufacturer's brochure
humans = conditions: Marzulli and Maibach's method

PII (rabbit skin)	SMILES	irritation to rabbit skin (rabbit skin)	primary dermal irritation / sensitization (human subjects)	cutaneous irritation (rabbits)	cutaneous irritation / sensitization (humans)
0.5	CN1CCCC1=O [Pharmasolve®, N-methyl-2-pyrrolidone]	practically nonirritating	neither a primary dermal irritant nor a sensitizer	–	–
–	CCOCCOCCO [Transcutol®, diethylene glycol monoethyl ether]	–	–	nonirritating	nonirritating and non-sensitizing
